Twelve compounds from patent US11986471B2, “Compounds and methods of use” (Tango Therapeutics, Inc., priority 2018, dated 2024) can be followed below.

Each structure is given as a SMILES string. Where only a bound is given, the exact number is not on record here.

In general, IC50 refers to the concentration that inhibits the measured activity by half.

Assay [1] has as its target T1, PRMT5 (Homo sapiens, UniProt O14744).
T1 construct: purchased Viva (custom protein)
The assay is described as follows: PRMT5 IC50 assay in the presence of SAM as cofactor. The format is biochemical. A digest of the protocol: (§1)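 IC50 values were measured against human PRMT5 with SAM, with MTA, or with no cofactor. Ki was derived from IC50 as Ki=IC50/1.5 with SAM and Ki=IC50/13.5 with MTA, and the Ki(SAM)/Ki(MTA) ratio was then taken.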

The target in assay [2] is T1, PRMT5. Kind of assay: PRMT5 IC50 assay with no cofactor. The format is biochemical. Particulars: read-out: No Co-factor IC50. In a few lines: as §1
The target of assay [3] is T1, PRMT5. The assay is described as follows: PRMT5 IC50 assay in the presence of MTA as cofactor. The format is biochemical. Particulars: for IC50: PRMT5, MTA as cofactor; for SAM/MTA Ratio: ratio between Ki in the presence of SAM and Ki in the presence of MTA. A digest of the protocol: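 For the SAM-containing format, dividing IC50 by 1.5 yields Ki; for the MTA-containing format the divisor is 13.5. A third format without cofactor gives IC50 alone.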

Assay [4] deals with HAP1 MTAP-intact. The assay is described as follows: SDMA in-cell western assay, HAP1 MTAP-intact cell line. The format is cell-based. Particulars: Homo sapiens. The text has this:
Table 1a also indicates IC50 values in an MTAP-isogenic cell line pair for exemplary compounds in an SDMA in-cell western assay (columns 7-8). HAP1 MTAP-intact is a cell line in which endogenous levels of MTAP are expressed, and HAP1 MTAP-deleted is an MTAP-null cell line. […] Compounds with a ratio in the SDMA in-cell western assay of equal to or greater than 3 fold are considered MTAP-selective.

Assay [5] has as its system HAP1 MTAP-deleted. The assay is described as follows: SDMA in-cell western assay, HAP1 MTAP-deleted cell line. The format is cell-based. Particulars: for IC50: Homo sapiens, HAP1 MTAP-deleted cell line; for MTAP Intact/Deleted Ratio: IC50 ratio HAP1 MTAP-intact / HAP1 MTAP-deleted. An excerpt:
Table 1a also indicates IC50 values in an MTAP-isogenic cell line pair for exemplary compounds in an SDMA in-cell western assay (columns 7-8). HAP1 MTAP-intact is a cell line in which endogenous levels of MTAP are expressed, and HAP1 MTAP-deleted is an MTAP-null cell line.

T1 sequence (O14744 whole entry): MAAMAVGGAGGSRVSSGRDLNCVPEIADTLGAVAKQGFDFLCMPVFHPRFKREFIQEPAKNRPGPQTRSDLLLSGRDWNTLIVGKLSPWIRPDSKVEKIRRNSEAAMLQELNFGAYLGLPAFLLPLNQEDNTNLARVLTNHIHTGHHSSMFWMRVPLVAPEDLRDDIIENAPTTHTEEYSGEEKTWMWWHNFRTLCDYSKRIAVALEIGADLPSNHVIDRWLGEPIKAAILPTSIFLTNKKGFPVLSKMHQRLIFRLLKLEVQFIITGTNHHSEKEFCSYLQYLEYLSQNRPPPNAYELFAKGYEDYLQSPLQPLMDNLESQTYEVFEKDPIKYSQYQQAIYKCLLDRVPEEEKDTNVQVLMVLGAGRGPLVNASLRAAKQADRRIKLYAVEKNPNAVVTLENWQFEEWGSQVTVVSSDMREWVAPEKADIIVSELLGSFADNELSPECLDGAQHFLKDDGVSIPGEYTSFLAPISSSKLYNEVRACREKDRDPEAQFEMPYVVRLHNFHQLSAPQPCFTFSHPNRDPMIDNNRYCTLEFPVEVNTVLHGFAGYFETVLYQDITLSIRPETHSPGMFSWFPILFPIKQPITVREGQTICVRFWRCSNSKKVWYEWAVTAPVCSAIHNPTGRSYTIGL
T1 sequence (Q9BQA1 whole entry partner): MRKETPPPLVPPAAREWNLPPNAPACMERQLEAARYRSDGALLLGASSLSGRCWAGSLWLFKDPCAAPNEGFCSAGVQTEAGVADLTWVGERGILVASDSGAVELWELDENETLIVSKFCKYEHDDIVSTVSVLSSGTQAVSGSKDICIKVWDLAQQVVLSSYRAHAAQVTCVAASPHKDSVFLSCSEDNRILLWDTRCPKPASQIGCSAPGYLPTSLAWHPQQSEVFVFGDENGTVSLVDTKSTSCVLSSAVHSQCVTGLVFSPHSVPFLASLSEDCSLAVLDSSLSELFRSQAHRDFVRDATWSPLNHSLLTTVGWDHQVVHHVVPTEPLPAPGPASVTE

On to `Cc1ncoc1COc1ccc2c(c1)CCN(C[C@@H](O)CNC(=O)c1cc(NC3CCCCC3)ncn1)C2` [Compound 388, 6-(cyclohexylamino)-N-[(2S)-2-hydroxy-3-{6-[(4-methyl-1,3-oxazol-5-yl)methoxy]-1,2,3,4-tetrahydroisoquinolin-2-yl}propyl]pyrimidine-4-carboxamide], for which the IC50 in assay [1] is 50 to 500 nM; in assay [2], at least 5000 nM; in assay [3] it was 50 to 500 nM; in assay [4], below 1000 nM; in assay [5] it was below 1000 nM. The “SAM/MTA Ratio” value in assay [3] is “A (a Ki ratio greater than or equal to 10 fold between the Ki in the presence of SAM and the Ki in the presence of MTA)”. Also, in assay [5], the “MTAP Intact/Deleted Ratio” value was “B* (an IC50 ratio greater than or equal to 3 fold but lower than 10 fold between the IC50 in the HAP1 MTAP-intact cell line and the HAP1 MTAP-deleted cell line)”.
Take `CCN1CCN(c2cc(C(=O)NC[C@H](O)CN3CCc4c(ccc(OCc5cnco5)c4Cl)C3)cc(NC3CCC3)n2)CC1` [Compound 299, (S)—N-(3-(5-chloro-6-(oxazol-5-ylmethoxy)-3N-dihydroisoquinolin-2(1H)-yl)-2-hydroxypropyl)-2-(cyclobutylamino)-6-(4-ethylpiperazin-1-yl)isonicotinamide]: the IC50 in assay [1] is 50 to 500 nM; in assay [2] it was 500 to 5000 nM; in assay [3] it was 50 to 500 nM; in assay [4] it was at least 10000 nM; in assay [5], 1000 to 10000 nM. Further, in assay [3], the “SAM/MTA Ratio” value was “A (a Ki ratio greater than or equal to 10 fold between the Ki in the presence of SAM and the Ki in the presence of MTA)”. The “MTAP Intact/Deleted Ratio” value in assay [5] is “B* (an IC50 ratio greater than or equal to 3 fold but lower than 10 fold between the IC50 in the HAP1 MTAP-intact cell line and the HAP1 MTAP-deleted cell line)”.
`O=C(NC[C@H](O)CN1CCc2cc(OCc3cn[nH]c3)ccc2C1)c1ccnc(NC2CCC2)c1` [Compound 163, 2-(cyclobutylamino)-N-[(2S)-2-hydroxy-3-[6-(1H-pyrazol-4-ylmethoxy)-3,4-dihydro-1H-isoquinolin-2-yl]propyl]pyridine-4-carboxamide]: the IC50 in assay [4] and in assay [5] was below 1000 nM in each case.
On to `CC(=O)N1CCC(Nc2cc(C(=O)NC[C@H](O)CN3CCc4c(C)c(OCc5ocnc5C)cc(F)c4C3)ccn2)CC1` [Compound 642, 2-[(1-acetyl-4-piperidyl)amino]-N-[(2S)-3-[8-fluoro-5-methyl-6-[(4-methyloxazol-5-yl)methoxy]-3,4-dihydro-1H-isoquinolin-2-yl]-2-hydroxy-propyl]pyridine-4-carboxamide], for which the half-inhibitory concentration (IC50) in assay [1] was 50 to 500 nM; in assay [2], 500 to 5000 nM; in assay [3] it was 50 to 500 nM; in assay [4], at least 10000 nM. Further, the “SAM/MTA Ratio” value in assay [3] is “A (a Ki ratio greater than or equal to 10 fold between the Ki in the presence of SAM and the Ki in the presence of MTA)”.
Turning to `CC(=O)N1CC(Nc2cc(C(=O)NC[C@H](O)CN3CCc4cc(OCc5ocnc5C)c(F)cc4C3)cc(N3CCCCC3)n2)C1` [Compound 638], the IC50 in assay [1] fell in the range of 50 to 500 nM; in assay [2], 50 to 500 nM; in assay [3], 50 to 500 nM; in assay [4], 1000 to 10000 nM. Besides, in assay [3], the “SAM/MTA Ratio” value was “A (a Ki ratio greater than or equal to 10 fold between the Ki in the presence of SAM and the Ki in the presence of MTA)”.
As to `Cn1nccc1COc1ccc2c(c1)CCN(C[C@@H](O)CNC(=O)c1ccnc(NC3CCC3)c1)C2` [Compound 14, (S)-2-(cyclobutylamino)-N-(2-hydroxy-3-(6-((1-methyl-1H-pyrazol-5-yl)methoxy)-3,4-dihydroisoquinolin-2(1H)-yl)propyl)isonicotinamide], the results for the IC50 in assay [4] and in assay [5] were 1000 to 10000 nM and at least 10000 nM, respectively.
In the case of `Cc1ncoc1COc1ccc2c(c1)CCN(C[C@@H](O)CNC(=O)c1cc(NC3CCC3)nc(N3CCCCC3)n1)C2` [Compound 639, (S)-6-(cyclobutylamino)-N-(2-hydroxy-3-(6-((4-methyloxazol-5-yl)methoxy)-3,4-dihydroisoquinolin-2(1H)-yl)propyl)-2-(piperidin-1-yl)pyrimidine-4-carboxamide], the IC50 in assay [1] was 50 to 500 nM; in assay [2], 500 to 5000 nM; in assay [3], 50 to 500 nM; in assay [4] it was below 1000 nM. Further, the “SAM/MTA Ratio” value in assay [3] was “A (a Ki ratio greater than or equal to 10 fold between the Ki in the presence of SAM and the Ki in the presence of MTA)”.
On to `Cc1ncoc1COc1ccc2c(c1)CCN(C[C@@H](O)CNC(=O)c1ccnc(NC3CCN(C(=O)C(C)(C)C)CC3)c1)C2` [Compound 640, (S)—N-(2-hydroxy-3-(6-((4-methyloxazol-5-yl)methoxy)-3,4-dihydroisoquinolin-2(1H)-yl)propyl)-2-((1-pivaloylpiperidin-4-yl)amino)isonicotinamide], for which the IC50 in assay [1] fell in the range of 50 to 500 nM; in assay [2] it was 500 to 5000 nM; in assay [3] it was 50 to 500 nM; in assay [4], 1000 to 10000 nM. Moreover, the “SAM/MTA Ratio” value in assay [3] was “A (a Ki ratio greater than or equal to 10 fold between the Ki in the presence of SAM and the Ki in the presence of MTA)”.
Consider `O=C(NC[C@H](O)CN1CCc2c(ccc(OCc3cnco3)c2Cl)C1)c1ccnc(NC2CCC2)c1F` [Compound 326, (S)—N-(3-(5-chloro-6-(oxazol-5-ylmethoxy)-3N-dihydroisoquinolin-2(1H)-yl)-2-hydroxypropyl)-2-(cyclobutylamino)-3-fluoroisonicotinamide], for which the IC50 in assay [4] and in assay [5] was at least 10000 nM each time.
Regarding `CC(=O)N1CCC(Nc2cc(C(=O)NC[C@H](O)CN3CCc4cc(OCc5ocnc5C)ccc4C3)cc(C3CCCCC3)n2)CC1` [Compound 641, (S)-2-((1-acetylpiperidin-4-yl)amino)-6-cyclohexyl-N-(2-hydroxy-3-(6-((4-methyloxazol-5-yl)methoxy)-3,4-dihydroisoquinolin-2(1H)-yl)propyl)isonicotinamide], the IC50 in assay [1] was 50 to 500 nM; in assay [2], 500 to 5000 nM; in assay [3], below 50 nM; in assay [4], below 1000 nM. Besides, in assay [3], the “SAM/MTA Ratio” value is “A (a Ki ratio greater than or equal to 10 fold between the Ki in the presence of SAM and the Ki in the presence of MTA)”.
Take `O=C(NC[C@H](O)CN1CCc2cc(OCc3cnco3)ccc2C1)c1ccnc(NC2CCC2)c1` [Compound 74, 2-(cyclobutylamino)-N-[(2S)-2-hydroxy-3-[6-(oxazol-5-ylmethoxy)-3,4-dihydro-1H-isoquinolin-2-yl]propyl]pyridine-4-carboxamide]: the IC50 in assay [4] and in assay [5] was 1000 to 10000 nM each time.
For `Cc1ncoc1COc1ccc2c(c1)CCN(C[C@@H](O)CNC(=O)c1ccnc(NC3CCC3)c1)C2` [Compound 96, (S)-2-(cyclobutylamino)-N-(2-hydroxy-3-(6-((4-methyloxazol-5-yl)methoxy)-3,4-dihydroisoquinolin-2(1H)-yl)propyl)isonicotinamide], the IC50 in assay [4] and in assay [5] was below 1000 nM throughout.
